Measured values from US20050080140A1, “Method for treating or preventing inflammatory disorders” (AnGes MG, Inc., priority 2003, published 2005).
Values belong to the molecule of their own block, whether it stands above or below them.

Assays:
[1] = tested on: HEK-293 cells; test: cDNA microarray analysis of cells expressing intracellular PGI2 (PGISwt vs inactive PGISC441A); format: cell-based, human; conditions: ratio of PGISwt to PGISC441A, 36 h
Protocol: HEK-293 cells (1.2×10^4 cells/cm^2) were transfected with expression vector for PGISwt or PGISC441A using LipofectAMINE (Invitrogen) and maintained in DMEM containing 10% FBS, 2 mM L-glutamine, 100 U/ml penicillin and […] streptomycin for 36 h. Poly(A+) mRNA (1.5 μg) was prepared from3×10^6 cells using Isogen (Nippon Gene) and Oligotex-dT30 super mRNA purification kit (Takara, Tokyo, Japan). Samples were analyzed by gene expression microarray (GEM) DNA tip containing 9,182 human cDNA clones (HUMAN UniGEM V Ver2.0, IncyteGenomics, Palo Alto, Calif.). Conversion of poly(A+) mRNA to cDNA with incorporation of Cy3- or Cy5-labeled deoxynucleotide-triphosphates (dNTPs), hybridization to arrays coated on glass, quality control and normalization were performed by IncyteGenomics. All data analyses were performed using an average fold change of two assays, and data were expressed as the ratio of PGISwt to PGISC441A.
In order to identify the downstream mediators of intracellular PGI2-PPARδ signaling pathway, a cDNA microarray analysis of human cells expressing intracellular PGI2 was performed. Based on precious studies of the inventors (Hatae et al., J. Biol. Chem. (2001) 276: 46260-7), a human embryonic kidney cell line (HEK-293) transfected with the expression vector for wild-type PGIS (PGISwt) was used to achieve endogenous expression of intracellular PGI2.

[2] = tested on: COX-2 gene; test: RT-PCR analysis of COX-2 mRNA; format: cell-based, human; conditions: HUVEC, combination of TNF-α (1 ng/ml) and IL-1β (20 ng/ml), FIG. 5
Protocol: For analysis of IL-13, human vascular endothelial cells (1.2×10^4 cells/cm^2) were stimulated with cPGI (10 μM) for 12 h, and total RNA was prepared from stimulated cells with Isogen (Nippon Gene). For analysis of COX-2, human vascular endothelial cells (1.2×10^4 cells/cm^2) were pretreated with TNF-α (1 ng/ml) and IL-1b (20 ng/ml) for 1 h, and then treated with cPGI (0, 10 μM), anti-human IL-13 monoclonal antibody (0, 0.5 μg/ml) and control IgG (0, 0.5 μg/ml) for 12 h to prepare total RNA. The total RNA (0.5 μg) was used for analysis by SuperScript RT-PCR system (Invitrogen) according to the manufacturer's instructions. The oligonucleotide primers used were IL-13-s (5′-[…]-3′ (SEQ ID NO: 6); sense) and IL-13-as (5′-[…]-3′ (SEQ ID NO: 7); antisense) for human IL-13, β-actin-s (5′-[…]-3′ (SEQ ID NO: 8); sense) and β-actin-as (5′-[…]-3′ (SEQ ID NO: 9); antisense) for human β-actin, and COX-2-s (5′-[…]-3′ (SEQ ID NO: 10); sense) and COX-2-as (5′-[…]-3′ (SEQ ID NO: 11); antisense) for human COX-2. For each PCR amplification, 1 μl of cDNA was used in a 50 μl reaction. Reverse transcription-PCR (RT-PCR) for β-actin (25 cycles) was used as an internal control for mRNA abundance. For IL-13 and COX-2 genes, the number of cycles ranged from 25 to 45. […] Samples were normalized based on equivalent expression of β-actin.

[3] = tested on: adhesion between human vascular endothelial cells and monocytic leukocyte U937 cells; test: Adherence assay of U937 cells to endothelial monolayers; format: cell-based; conditions: HUVEC, 24 h
Protocol: HUVEC (2.5×10^4 cells/cm^2) were cultured in 12-well plates. After 24 h, confluent monolayers were used for adherence assays. Monolayers were preincubated in EGM-2 containing 2% FBS, 0 or 10 ng/ml TNF-α, 0 or 10 ng/ml IL-13 and 0 or 10 μM cPGI with or without anti-IL-13 monoclonal antibody (0.5 μg/ml) at 37° C. for 0 to 24 h. Human monocyte leukocyte U937 cells were cultured in RPMI 1640 (Gibco-Invitrogen) containing 10% FBS, 100 U/ml penicillin and […] streptomycin , labeled with 2.5 μM calcein-AM (Molecular Probes, Eugene, Oreg.) at room temperature for 45 min, washed and resuspended in serum-free EGM-2. The calcein-labeled U937 cells (8×10^4 cells/well) were added to pretreated endothelial cells and incubated with cPGI (0, 10 μM), recombinant IL-13 (0, 10 ng/ml) and anti-IL-13 monoclonal antibody (0, 0.5 μg/ml). U937 cells were allowed to adhere to pretreated endothelial cells for 30 min at 37° C. Adherence was assessed with a fluorescence image analyzer (FLA-2000; Fujifilm, Tokyo, Japan). Plates were scanned before and after washing for total and adherent cells, respectively, and relative adherence was calculated (fold of control).

[4] = tested on: IL-13; test: IL-13 ELISA of culture medium of human vascular endothelial cells; format: cell-based; conditions: HUVEC treated with TNF-α 0-10 ng/ml, 24 h, FIG. 4C
Protocol: (§1) Human vascular endothelial cells (1.2×10^4 cells/cm^2) were cultured in EGM-2 containing 2% FBS and several concentrations of cPGI with or without TNF-α for 24 h. Incubation media were collected and stored at −80° C. before assay. Amounts of IL-13 were measured with human IL-13 ELISA system (Amersham Pharmacia Biotech, Buckinghamshire, UK) and amounts of PGI2 were measured as the amounts of 6-keto-PGI1α, a stable metabolite of PGI2, with 6-keto-PGI1α ELISA kit (Cayman Chemical Co., Ann Arbor, Mich.) according to the manufacturers' instructions.
(§2) siRNA duplexes with the following sense and antisense sequences were made: PGIS1, 5′-[…]-3′ (SEQ ID NO: 12; sense) and 5′-[…]-3′ (SEQ ID NO: 13; antisense); PGIS2, 5′-[…]-3′ (SEQ ID NO: 14; sense) and 5′-[…]-3′ (SEQ ID NO: 15; antisense); PGIS3, 5′-[…]-3′ (SEQ ID NO: 16; sense) and 5′-[…] (SEQ ID NO: 17; antisense); and PGIS4, 5′-[…]-3′ (SEQ ID NO:, 18; sense) and 5′-[…]-3′ (SEQ ID NO: 19; antisense). siRNAs were synthesized and annealed by Dharmacon Research Inc. (Lafayette, CO). Control non-silencing siRNA, a duplex of sense (5′-UUCUCCGAACGUGUCACGUdTdT-3′; SEQ ID NO: 20) and antisense (5′-ACGUGACACGUUCGGAGAAdTdT-3′; SEQ ID NO: 21) sequences, was purchase from Qiagen (Valencia, Calif.). The cells were initially transfected with 200 pmol per well of the annealed RNA mixture or the same amount of control siRNA using LipofectAMINE2000 (Invitrogen), and 12 h later secondly transfected with the same amount of siRNAs using HVJ-liposome transfection kit (GenomeONE; Ishihara Sangyo, Osaka, Japan) according to the manufacturers' instructions. The cells were retransfected with the siRNAs every 3 days using LipofectAMINE2000 and HVJ-liposome, and used for analyses 10 days after transfection. Microsomal fractions of the cells were prepared and analyzed by immunoblotting with anti-PGIS P4 polyclonal antibody as described previously (Hatae et al., J. Biol. Chem. (2001) 276: 46260-7). The cells treated with siRNAs for 10 days were cultured in fresh EGM-2 containing 2% FBS and TNF-α (0, 10 ng/ml). with or without cPGI (10 μM) for 24 h. The incubation media were collected, and amounts of 6-keto-PGI1α or IL-13 were measured with ELISA kit.

[5] = tested on: PPRE (PPARδ activation); test: PPREx3-luciferase reporter assay; format: cell-based, human; conditions: HUVEC treated with TNF-α 0-10 ng/ml, 24 h, FIG. 4B
Protocol: Primary cultured human umbilical vein endothelial cells (HUVEC) and human aortic endothelial cells (HAEC) were obtained from Kurabo Co. Ltd. (Tokyo, Japan) and were cultured in EGM-2 growth medium supplemented with 2% fetal bovine serum (FBS) and a mixture of growth factors according to the supplier's instructions. Total RNA from the cells in culture was prepared with Isogen (Nippon Gene, Tokyo, Japan). Human embryonic kidney HEK-293 cells were cultured in DMEM containing 10% FBS, 2 mM L-glutamine, 100 U/ml penicillin and […] streptomycin as described previously (Hatae et al., J. Biol. Chem. (2001) 276: 46260-7). […] HEK-293 cells were transfected with DNA using lipofectAMINE (Invitrogen, Carlsbad, Calif.) as described previously (Hatae et al., J. Biol. Chem. (2001) 276: 46260-7). Human vascular endothelial cells were transfected with TransIT LT-1 (PanVera Co., Madison, Wis.). Transfections were performed at a ratio of 1 μg of DNA to 3.0 μl of the reagents, and cells were incubated in serum-free EGM-2 at 37° C. for 5 h. Subsequently, cells were grown in fresh EGM-2 containing 2% FBS and a mixture of growth factors for 12 h before analysis. For reporter assay, human vascular endothelial cells (1.2×10^4 cells/cm^2) were cotransfected with 0.2 μg of the PPREx3-luciferase reporter vector and 0.1 μg of β-galactosidase expression vector by use of TransIT LT-1. After 17 h of transfection, cells were washed with PBS, incubated in EGM-2 containing 2% FBS and cPGI (0-100 μM) for 24 h at 37° C., and subjected to luciferase assay as described previously (Hatae et al., J. Biol. Chem. (2001) 276: 46260-7). The luciferase activity of the extract was normalized to β-galactosidase activity.

[6] = tested on: endogenous PGI2 production; test: PGI2 assay (6-keto-PGF1α ELISA); format: cell-based, human; conditions: HUVEC, TNF-α 0, 0.1, 1 or 10 ng/ml, 24 h, FIG. 4A
Protocol: as §1
siRNA duplexes with the following sense and antisense sequences were made: PGIS1, 5′-[…]-3′ (SEQ ID NO: 12; sense) and 5′-[…]-3′ (SEQ ID NO: 13; antisense); PGIS2, 5′-[…]-3′ (SEQ ID NO: 14; sense) and 5′-[…]-3′ (SEQ ID NO: 15; antisense); PGIS3, 5′-[…]-3′ (SEQ ID NO: 16; sense) and 5′-[…] (SEQ ID NO: 17; antisense); and PGIS4, 5′-[…]-3′ (SEQ ID NO:, 18; sense) and 5′-[…]-3′ (SEQ ID NO: 19; antisense). siRNAs were synthesized and annealed by Dharmacon Research Inc. (Lafayette, CO). […] Microsomal fractions of the cells were prepared and analyzed by immunoblotting with anti-PGIS P4 polyclonal antibody as described previously (Hatae et al., J. Biol. Chem. (2001) 276: 46260-7). […] The incubation media were collected, and amounts of 6-keto-PGI1α or IL-13 were measured with ELISA kit.

[7] = tested on: PGIS; test: RNAi silencing of PGIS, immunoblotting with anti-PGIS antibody; format: cell-based, human; conditions: HUVEC, siRNA treatment for 10 days, FIG. 6A
Description: as §2, with “The cells were retransfected with the siRNAs every 3 days using LipofectAMINE2000 and HVJ-liposome, and used for analyses 10 days after transfection.” left out, “The cells treated with siRNAs for 10 days were cultured in fresh EGM-2 containing 2% FBS and TNF-α (0, 10 ng/ml). with or without cPGI (10 μM) for 24 h.” left out

Molecule: CCCCC[C@H](O)/C=C/[C@@H]1[C@H]2C/C(=C/CCCC(=O)O)O[C@H]2C[C@H]1O [PGI2, prostacyclin]
- Differential expression, IL-13 (NM_002188) [1]: +11.0
- Differential expression, Sjogren syndrome antigen (BF897247) [1]: +2.8
- Differential expression, aldehyde dehydrogenase 1 family, member A1 (AI050734) [1]: +2.5
- Differential expression, butyrophilin, subfamily 3, member A2 (AA482308) [1]: +2.7
- Differential expression, isopentenyl-diphosphate delta isomerase (BF698441) [1]: +2.9
- Differential expression, mal T-cell differentiation protein (NM_022439) [1]: +7.0 mal

Molecule: IL-1: Recombinant human IL-1β, proinflammatory cytokine
- expression of COX-2 mRNA [2]: induced

Molecule: IL-13: recombinant human IL-13
- TNF-α-induced monocytic leukocyte-endothelial cell adhesion ([3]; TNF-α 10 ng/ml plus antibody 0.5 μg/ml, cPGI 10 μM or IL-13 10 ng/ml, FIG. 4D lanes 3-5): inhibited

- relative luciferase activity of reporter vector containing PPRE [5]: increased
Molecule: TNF-α
- production of IL-13 [4]: increased
- endogenous PGI2 production [6]: significantly induced
- adhesion between U937 cells and endothelial cells ([3]; TNF-α 10 ng/ml alone, FIG. 4D lanes 1 and 2): increase adhesion
- expression of COX-2 mRNA [2]: induced

Molecule: control siRNA: Control non-silencing siRNA duplex (SEQ ID NO: 20, 21) from Qiagen (chain 1 UUCUCCGAACGUGUCACGUNN; chain 2 ACGUGACACGUUCGGAGAANN; listed as RNA, chemistry not fully specified)
- endogenous expression of PGIS (Western analysis) [7]: no effect
